Measured values reported in patent US12723063B2, “GIPR-agonist compounds” (Eli Lilly and Company, priority 2019, dated 2026).
*1 amine or outer side, *2 acyl side, *3 side chain or, on linkers, in order; H or OH if unused. Where a SMILES comes first, the peptide text is derived from it. Side-chain parts run from the residue outwards. [ ]: non-standard residue; d: D form. The star is where a group is joined. C20 diacid = O=C(O)CCCCCCCCCCCCCCCCCCC(=O)*; C18 diacid = O=C(O)CCCCCCCCCCCCCCCCC(=O)*; γGlu = O=C(O)[C@H](CCC(=O)[*:2])N[*:1]; 4Pal = N[C@@H](Cc1ccncc1)C(=O)O; αMeL = CC(C)C[C@](C)(N)C(=O)O; Iva = CC[C@](C)(N)C(=O)O; Orn = NCCC[C@H](N)C(=O)O; AEEA = NCCOCCOCC(=O)O; Aib = CC(C)(N)C(=O)O

Molecular target: T1, human GLP-1R (Homo sapiens, UniProt P43220)
T1 construct: expressed in transfected cells; crude membranes
T1 sequence (P43220 24-463): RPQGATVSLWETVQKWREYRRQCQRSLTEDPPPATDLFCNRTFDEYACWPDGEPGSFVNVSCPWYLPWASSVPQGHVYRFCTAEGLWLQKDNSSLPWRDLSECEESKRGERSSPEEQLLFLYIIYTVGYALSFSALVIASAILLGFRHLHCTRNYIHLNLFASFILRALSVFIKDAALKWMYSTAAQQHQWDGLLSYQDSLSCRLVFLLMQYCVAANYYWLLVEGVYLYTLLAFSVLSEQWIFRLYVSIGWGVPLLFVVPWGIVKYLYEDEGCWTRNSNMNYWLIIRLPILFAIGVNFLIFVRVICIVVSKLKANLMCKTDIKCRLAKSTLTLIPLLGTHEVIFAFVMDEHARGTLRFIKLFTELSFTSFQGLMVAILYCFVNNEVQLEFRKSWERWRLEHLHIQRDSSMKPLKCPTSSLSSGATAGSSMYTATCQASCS
Assay: [125I]-GLP-1 binding, SPA with WGA beads, 0.1% bacitracin
Conditions: geometric mean, read-out: hGLP1R Ki
In short: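 Binding buffer was 25 mM HEPES pH 7.4 with 2.5 mM CaCl2, 1 mM MgCl2, 0.1% (w/v) bacitracin, 0.003% Tween-20 and EDTA-free protease inhibitors. Four-parameter regression gave IC50, converted to Ki (geometric mean, SEM, n independent days).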

Row | SMILES | Ki [µM]
1 | CC[C@H](C)[C@H](NC(=O)[C@H](CCCCN)NC(=O)[C@H](CC(=O)O)NC(=O)[C@H](CC(C)C)NC(=O)[C@](C)(CC(C)C)NC(=O)[C@@H](NC(=O)[C@H](CO)NC(=O)[C@H](Cc1ccc(O)cc1)NC(=O)[C@H](CC(=O)O)NC(=O)[C@H](CO)NC(=O)[C@@H](NC(=O)[C@H](Cc1ccccc1)NC(=O)[C@@H](NC(=O)CNC(=O)[C@H](CCC(=O)O)NC(=O)C(C)(C)NC(=O)[C@@H](N)Cc1ccc(O)cc1)[C@@H](C)O)[C@@H](C)CC)[C@@H](C)CC)C(=O)N[C@@H](CCCNC(=N)N)C(=O)N[C@@H](CCC(N)=O)C(=O)NC(C)(C)C(=O)N[C@@H](CC(=O)O)C(=O)N[C@@H](Cc1ccccc1)C(=O)N[C@H](C(=O)N[C@@H](CCC(=O)O)C(=O)N[C@@H](Cc1ccc(O)cc1)C(=O)N[C@@H](CCCCNC(=O)COCCOCCNC(=O)COCCOCCNC(=O)CC[C@H](NC(=O)CCCCCCCCCCCCCCCCCCC(=O)O)C(=O)O)C(=O)N[C@@H](CC(C)C)C(=O)N[C@@H](CCC(=O)O)C(=O)NCC(=O)NCC(=O)N1CCC[C@H]1C(=O)N[C@@H](CO)C(=O)N[C@@H](CO)C(=O)NCC(=O)N[C@@H](C)C(=O)N1CCC[C@H]1C(=O)N1CCC[C@H]1C(=O)N1CCC[C@H]1C(=O)N[C@@H](CO)C(N)=O)C(C)C [Example 115] (H-Y[Aib]EGTFISDYSI[αMeL]LDKIRQ[Aib]DFVEYK([AEEA-AEEA-γGlu-C20 diacid])LEGGPSSGAPPPS-NH2) | > 0.912
2 | CC[C@H](C)[C@H](NC(=O)[C@H](CO)NC(=O)[C@H](Cc1ccc(O)cc1)NC(=O)[C@H](CC(=O)O)NC(=O)[C@H](CO)NC(=O)[C@@H](NC(=O)[C@](C)(CC)NC(=O)[C@@H](NC(=O)CNC(=O)[C@H](CCC(=O)O)NC(=O)C(C)(C)NC(=O)[C@@H](N)Cc1ccc(O)cc1)[C@@H](C)O)[C@@H](C)CC)C(=O)N[C@@](C)(CC(C)C)C(=O)N[C@@H](CC(C)C)C(=O)N[C@@H](CC(=O)O)C(=O)N[C@@H](CCCCN)C(=O)N[C@@H](CCCCNC(=O)COCCOCCNC(=O)COCCOCCNC(=O)CC[C@H](NC(=O)CCCCCCCCCCCCCCCCCCC(=O)O)C(=O)O)C(=O)N[C@@H](Cc1c[nH]cn1)C(=O)N[C@@H](CCC(N)=O)C(=O)NC(C)(C)C(=O)N[C@@H](CC(=O)O)C(=O)N[C@@H](Cc1ccccc1)C(=O)N[C@H](C(=O)N[C@@H](CCC(=O)O)C(=O)N[C@@H](Cc1ccncc1)C(=O)N[C@@H](CC(C)C)C(=O)N[C@@H](CC(C)C)C(=O)N[C@@H](CCC(=O)O)C(=O)N[C@H](C(=O)NCC(=O)N1CCC[C@H]1C(=O)N[C@@H](CO)C(=O)N[C@@H](CO)C(=O)NCC(=O)N[C@@H](C)C(=O)N1CCC[C@H]1C(=O)N1CCC[C@H]1C(=O)N1CCC[C@H]1C(=O)N[C@@H](CO)C(N)=O)[C@@H](C)O)C(C)C [Example 75] (H-Y[Aib]EGT[Iva]ISDYSI[αMeL]LDKK([AEEA-AEEA-γGlu-C20 diacid])HQ[Aib]DFVE[4Pal]LLETGPSSGAPPPS-NH2) | > 0.902
3 | CC[C@H](C)[C@H](NC(=O)[C@H](CO)NC(=O)[C@H](Cc1ccc(O)cc1)NC(=O)[C@H](CC(=O)O)NC(=O)[C@H](CO)NC(=O)[C@@H](NC(=O)[C@H](Cc1ccccc1)NC(=O)[C@@H](NC(=O)CNC(=O)[C@H](CCC(=O)O)NC(=O)[C@@H](C)NC(=O)[C@@H](N)Cc1ccc(O)cc1)[C@@H](C)O)[C@@H](C)CC)C(=O)N[C@@H](CC(C)C)C(=O)N[C@@H](CC(C)C)C(=O)N[C@@H](CC(=O)O)C(=O)N[C@@H](CCCCN)C(=O)N[C@@H](CCCCNC(=O)COCCOCCNC(=O)COCCOCCNC(=O)CC[C@H](NC(=O)CCCCCCCCCCCCCCCCCCC(=O)O)C(=O)O)C(=O)N[C@@H](Cc1c[nH]cn1)C(=O)N[C@@H](CCC(N)=O)C(=O)NC(C)(C)C(=O)N[C@@H](CC(=O)O)C(=O)N[C@@H](Cc1ccccc1)C(=O)N[C@H](C(=O)N[C@@H](CC(N)=O)C(=O)N[C@@H](Cc1c[nH]c2ccccc12)C(=O)N[C@@H](CC(C)C)C(=O)N[C@@H](CC(C)C)C(=O)N[C@@H](C)C(=O)N[C@@H](CCC(N)=O)C(=O)NCC(=O)N1CCC[C@H]1C(=O)N[C@@H](CO)C(=O)N[C@@H](CO)C(=O)NCC(=O)N[C@@H](C)C(=O)N1CCC[C@H]1C(=O)N1CCC[C@H]1C(=O)N1CCC[C@H]1C(=O)N[C@@H](CO)C(N)=O)C(C)C [Example 9] (H-Y[dA]EGTFISDYSILLDKK([AEEA-AEEA-γGlu-C20 diacid])HQ[Aib]DFVNWLLAQGPSSGAPPPS-NH2) | 0.168
4 | CC[C@H](C)[C@H](NC(=O)[C@H](CCCN)NC(=O)[C@H](CC(=O)O)NC(=O)[C@H](CC(C)C)NC(=O)[C@](C)(CC(C)C)NC(=O)[C@@H](NC(=O)[C@H](CO)NC(=O)[C@H](Cc1ccc(O)cc1)NC(=O)[C@H](CC(=O)O)NC(=O)[C@H](CO)NC(=O)[C@@H](NC(=O)[C@H](Cc1ccccc1)NC(=O)[C@@H](NC(=O)CNC(=O)[C@H](CCC(=O)O)NC(=O)C(C)(C)NC(=O)[C@@H](N)Cc1ccc(O)cc1)[C@@H](C)O)[C@@H](C)CC)[C@@H](C)CC)C(=O)N[C@@H](Cc1c[nH]cn1)C(=O)N[C@@H](CCC(N)=O)C(=O)NC(C)(C)C(=O)N[C@@H](CCC(=O)O)C(=O)N[C@@H](Cc1ccccc1)C(=O)N[C@H](C(=O)N[C@@H](CCC(=O)O)C(=O)N[C@@H](Cc1ccc(O)cc1)C(=O)N[C@@H](CCCCNC(=O)COCCOCCNC(=O)COCCOCCNC(=O)CC[C@H](NC(=O)CCCCCCCCCCCCCCCCCCC(=O)O)C(=O)O)C(=O)N[C@@H](CC(C)C)C(=O)N[C@@H](CCC(=O)O)C(=O)N[C@@H](CCC(N)=O)C(=O)NCC(=O)N1CCC[C@H]1C(=O)N[C@@H](CO)C(=O)N[C@@H](CO)C(=O)NCC(=O)N[C@@H](C)C(=O)N1CCC[C@H]1C(=O)N1CCC[C@H]1C(=O)N1CCC[C@H]1C(=O)N[C@@H](CO)C(N)=O)C(C)C [Example 106] (H-Y[Aib]EGTFISDYSI[αMeL]LD[Orn]IHQ[Aib]EFVEYK([AEEA-AEEA-γGlu-C20 diacid])LEQGPSSGAPPPS-NH2) | > 0.91
5 | CC[C@H](C)[C@H](NC(=O)[C@H](CO)NC(=O)[C@H](Cc1ccc(O)cc1)NC(=O)[C@H](CC(=O)O)NC(=O)[C@H](CO)NC(=O)[C@@H](NC(=O)[C@H](Cc1ccccc1)NC(=O)[C@@H](NC(=O)CNC(=O)[C@H](CCC(=O)O)NC(=O)[C@@H](C)NC(=O)[C@@H](N)Cc1ccc(O)cc1)[C@@H](C)O)[C@@H](C)CC)C(=O)N[C@@H](CC(C)C)C(=O)N[C@@H](CC(C)C)C(=O)N[C@@H](CC(=O)O)C(=O)N[C@@H](CCCCN)C(=O)N[C@@H](CCCCNC(=O)COCCOCCNC(=O)COCCOCCNC(=O)CC[C@H](NC(=O)CCCCCCCCCCCCCCCCC(=O)O)C(=O)O)C(=O)N[C@@H](C)C(=O)N[C@@H](CCC(N)=O)C(=O)NC(C)(C)C(=O)N[C@@H](CC(=O)O)C(=O)N[C@@H](Cc1ccccc1)C(=O)N[C@H](C(=O)N[C@@H](CC(N)=O)C(=O)N[C@@H](Cc1c[nH]c2ccccc12)C(=O)N[C@@H](CC(C)C)C(=O)N[C@@H](CC(C)C)C(=O)N[C@@H](CCC(=O)O)C(=O)N[C@@H](CCC(N)=O)C(=O)NCC(=O)N1CCC[C@H]1C(=O)N[C@@H](CO)C(=O)N[C@@H](CO)C(=O)NCC(=O)N[C@@H](C)C(=O)N1CCC[C@H]1C(=O)N1CCC[C@H]1C(=O)N1CCC[C@H]1C(=O)N[C@@H](CO)C(N)=O)C(C)C [Example 17] (H-Y[dA]EGTFISDYSILLDKK([AEEA-AEEA-γGlu-C18 diacid])AQ[Aib]DFVNWLLEQGPSSGAPPPS-NH2) | 0.106
6 | CC[C@H](C)[C@H](NC(=O)[C@H](CCCCN)NC(=O)[C@H](CC(=O)O)NC(=O)[C@H](CC(C)C)NC(=O)[C@](C)(CC(C)C)NC(=O)[C@@H](NC(=O)[C@H](CO)NC(=O)[C@H](Cc1ccc(O)cc1)NC(=O)[C@H](CC(=O)O)NC(=O)[C@H](CO)NC(=O)[C@@H](NC(=O)[C@H](Cc1ccccc1)NC(=O)[C@@H](NC(=O)CNC(=O)[C@H](CCC(=O)O)NC(=O)C(C)(C)NC(=O)[C@@H](N)Cc1ccc(O)cc1)[C@@H](C)O)[C@@H](C)CC)[C@@H](C)CC)C(=O)N[C@@H](Cc1c[nH]cn1)C(=O)N[C@@H](CCC(N)=O)C(=O)NC(C)(C)C(=O)N[C@@H](CCC(=O)O)C(=O)N[C@@H](Cc1ccccc1)C(=O)N[C@H](C(=O)N[C@@H](CCC(=O)O)C(=O)N[C@@H](Cc1ccncc1)C(=O)N[C@@H](CCCCNC(=O)COCCOCCNC(=O)COCCOCCNC(=O)CC[C@H](NC(=O)CCCCCCCCCCCCCCCCCCC(=O)O)C(=O)O)C(=O)N[C@@H](CC(C)C)C(=O)N[C@@H](CCC(=O)O)C(=O)NCC(=O)NCC(=O)N1CCC[C@H]1C(=O)N[C@@H](CO)C(=O)N[C@@H](CO)C(=O)NCC(=O)N[C@@H](C)C(=O)N1CCC[C@H]1C(=O)N1CCC[C@H]1C(=O)N1CCC[C@H]1C(=O)N[C@@H](CO)C(N)=O)C(C)C [Example 100] (H-Y[Aib]EGTFISDYSI[αMeL]LDKIHQ[Aib]EFVE[4Pal]K([AEEA-AEEA-γGlu-C20 diacid])LEGGPSSGAPPPS-NH2) | > 0.913
7 | CC[C@H](C)[C@H](NC(=O)[C@H](CO)NC(=O)[C@H](Cc1ccc(O)cc1)NC(=O)[C@H](CC(=O)O)NC(=O)[C@H](CO)NC(=O)[C@@H](NC(=O)[C@H](Cc1ccccc1)NC(=O)[C@@H](NC(=O)CNC(=O)[C@H](CCC(=O)O)NC(=O)[C@@H](C)NC(=O)[C@@H](N)Cc1ccc(O)cc1)[C@@H](C)O)[C@@H](C)CC)C(=O)N[C@@H](CC(C)C)C(=O)N[C@@H](CC(C)C)C(=O)N[C@@H](CC(=O)O)C(=O)N[C@@H](CCCCN)C(=O)N[C@@H](CCCCNC(=O)COCCOCCNC(=O)COCCOCCNC(=O)CC[C@H](NC(=O)CCCCCCCCCCCCCCCCC(=O)O)C(=O)O)C(=O)N[C@@H](C)C(=O)N[C@@H](CCC(N)=O)C(=O)NC(C)(C)C(=O)N[C@@H](CCC(=O)O)C(=O)N[C@@H](Cc1ccccc1)C(=O)N[C@H](C(=O)N[C@@H](CCC(=O)O)C(=O)N[C@@H](Cc1c[nH]c2ccccc12)C(=O)N[C@@H](CC(C)C)C(=O)N[C@@H](CC(C)C)C(=O)N[C@@H](C)C(=O)NCC(=O)NCC(=O)N1CCC[C@H]1C(=O)N[C@@H](CO)C(=O)N[C@@H](CO)C(=O)NCC(=O)N[C@@H](C)C(=O)N1CCC[C@H]1C(=O)N1CCC[C@H]1C(=O)N1CCC[C@H]1C(=O)N[C@@H](CO)C(N)=O)C(C)C [Example 29] (H-Y[dA]EGTFISDYSILLDKK([AEEA-AEEA-γGlu-C18 diacid])AQ[Aib]EFVEWLLAGGPSSGAPPPS-NH2) | 0.0227
